These results are taken from US6365574B2, “Ethanolate of azithromycin, process for manufacture, and pharmaceutical compositions thereof” (Teva Pharmaceutical Industries Ltd., priority 1998, dated 2002).

For series [1] the following is noted: cited from earlier work.
The nature of series [2]: Hygroscopicity profile: controlled humidity chambers for two weeks, then Karl Fisher analysis of water content. To be noted: compared with azithromycin monohydrate over a range of relative humidity (FIG. 1); monohydrate data from EP 298,650. Type of series: physicochemical. The text has this:
Hygroscopicity profiles were obtained by maintaining samples in controlled humidity chambers for a period of two weeks, followed by Karl Fisher analysis of water content.

Entries after “also recorded” stand apart in the source; their conditions may differ. Read-outs that look alike come from different tables or passages of the source.

In the case of “9-deoxo-9a-aza-9a-methyl-9a-homoerythromycin A”, the hygroscopicity entry in series [1] (according to CN 1,093,370) is given as “less hygroscopic than the dehydrate described in EP 298,650”.

As for “9-deoxo-9a-aza-9a-methyl-9a-homoerythromycin A [dehydrate form of azithromycin]”, the hygroscopicity result in series [1] (according to EP 298,650) is recorded as “less hygroscopic than the previously known monohydrate”.

Consider “9-deoxo-9a-aza-9a-methyl-9a-homoerythromycin A [ethanolate of azithromycin]”, for which the hygroscopicity result in series [2] is recorded as “less hygroscopic than azithromycin monohydrate; also recorded: less hygroscopic than the prior art monohydrate”.

Take “9-deoxo-9a-aza-9a-methyl-9a-homoerythromycin A [monohydrate]”: in series [1] (according to EP 298,650), the hygroscopicity result is listed as “hygroscopic”.
